Test results published in ChEMBL document CHEMBL1201862, “PubChem BioAssay data set” (2004).
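Interpolation was linear, between the two tested concentrations surrounding the appropriate level; five concentrations were tested over 48 hours in 96-well plates. The concentration for 50% growth inhibition is given as GI50.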 The source made the active and inactive calls. Cut-off read from the data, not from the text of the source: active = GI50 up to about 1.1 µM and inactive = higher.

Assays:
Assay in all cases: growth of human tumour cells (NCI), 48 h
786-0 = tested on: 786-0
A498 = tested on: A498
A549 = tested on: A549
ACHN = tested on: ACHN
BT-549 = tested on: BT-549
CAKI-1 = tested on: CAKI-1
CCRF-CEM = tested on: CCRF-CEM
COLO 205 = tested on: COLO 205
DU-145 = tested on: DU-145
EKVX = tested on: EKVX
HCC 2998 = tested on: HCC 2998
HCT-116 = tested on: HCT-116
HCT-15 = tested on: HCT-15
HL-60 = tested on: HL-60
HOP-62 = tested on: HOP-62
HOP-92 = tested on: HOP-92
HT-29 = tested on: HT-29
Hs-578T = tested on: Hs-578T
IGROV-1 = tested on: IGROV-1
K562 = tested on: K562
KM12 = tested on: KM12
LOX IMVI = tested on: LOX IMVI
M14 = tested on: M14
MCF7 = tested on: MCF7
MDA-MB-231 = tested on: MDA-MB-231
MDA-MB-435 = tested on: MDA-MB-435
MDA-N = tested on: MDA-N
MOLT-4 = tested on: MOLT-4
Malme-3M = tested on: Malme-3M
NCI-H226 = tested on: NCI-H226
NCI-H23 = tested on: NCI-H23
NCI-H460 = tested on: NCI-H460
NCI/ADR-RES = tested on: NCI/ADR-RES
OVCAR-3 = tested on: OVCAR-3
OVCAR-4 = tested on: OVCAR-4
OVCAR-5 = tested on: OVCAR-5
OVCAR-8 = tested on: OVCAR-8
PC-3 = tested on: PC-3
RPMI-8226 = tested on: RPMI-8226
RXF 393 = tested on: RXF 393
SF-268 = tested on: SF-268
SF-295 = tested on: SF-295
SF-539 = tested on: SF-539
SK-MEL-28 = tested on: SK-MEL-28
SK-MEL-2 = tested on: SK-MEL-2
SK-MEL-5 = tested on: SK-MEL-5
SK-OV-3 = tested on: SK-OV-3
SN12C = tested on: SN12C
SNB-19 = tested on: SNB-19
SNB-75 = tested on: SNB-75
SR = tested on: SR
SW-620 = tested on: SW-620
T47D = tested on: T47D
TK-10 = tested on: TK-10
U-251 = tested on: U-251
UACC-257 = tested on: UACC-257
UACC-62 = tested on: UACC-62
UO-31 = tested on: UO-31
NCI-H522 = tested on: NCI-H522

Measured: GI50

Cc1ccc(-c2cs/c(=N\c3ccccc3)n2NC(=O)c2ccncc2)cc1
42.5 µM: HCT-15
inactive: 786-0 48 µM | A498 > 75.2 µM | A549 31.8 µM | ACHN 35.3 µM | BT-549 30.8 µM | CAKI-1 26.4 µM | CCRF-CEM 36.6 µM | COLO 205 29.8 µM | DU-145 56.2 µM | EKVX 37.3 µM | HCC 2998 75.2 µM | HCT-116 31.8 µM | HL-60 19.4 µM | HOP-62 39.4 µM | HOP-92 88.5 µM | HT-29 21 µM | Hs-578T 57.5 µM | IGROV-1 40.3 µM | K562 15 µM | KM12 31.4 µM | LOX IMVI 34.2 µM | M14 33 µM | MCF7 33.3 µM | MDA-MB-231 51.5 µM | MDA-MB-435 29.4 µM | MDA-N 25.4 µM | MOLT-4 26.4 µM | Malme-3M 43.3 µM | NCI-H226 28.4 µM | NCI-H23 31.3 µM | NCI-H460 36.3 µM | NCI/ADR-RES 28.3 µM | OVCAR-3 35.6 µM | OVCAR-4 36.9 µM | OVCAR-5 40.8 µM | OVCAR-8 25.8 µM | PC-3 27.4 µM | RPMI-8226 22.6 µM | RXF 393 35.2 µM | SF-268 42.1 µM | SF-295 27.6 µM | SF-539 69 µM | SK-MEL-28 36.6 µM | SK-MEL-2 28.5 µM | SK-MEL-5 18.7 µM | SK-OV-3 33.7 µM | SN12C 45.2 µM | SNB-19 46.8 µM | SNB-75 50.6 µM | SR 34.8 µM | SW-620 35.8 µM | T47D 24.5 µM | TK-10 > 54.7 µM | U-251 19.1 µM | UACC-257 37.3 µM | UACC-62 20.5 µM | UO-31 30.6 µM

COC(=O)C(Cc1c[nH]c2ccccc12)NP(=O)(O)OCC1OC(n2cc(F)c(=O)[nH]c2=O)CC1O (stereo unspecified)
> 100 µM: HCT-15
inactive: 786-0 28.2 µM | A549 10.4 µM | ACHN 6.89 µM | BT-549 > 100 µM | CCRF-CEM 3.59 µM | COLO 205 > 100 µM | DU-145 43.9 µM | EKVX > 100 µM | HCC 2998 99.3 µM | HCT-116 14.5 µM | HL-60 40.9 µM | HOP-62 25.9 µM | HOP-92 31.4 µM | HT-29 > 100 µM | Hs-578T > 100 µM | IGROV-1 > 71.1 µM | K562 > 100 µM | KM12 > 96.2 µM | LOX IMVI 18.2 µM | M14 30.8 µM | MCF7 7.35 µM | MDA-MB-231 > 100 µM | MDA-MB-435 > 100 µM | MDA-N > 100 µM | MOLT-4 10.1 µM | Malme-3M > 100 µM | NCI-H226 > 100 µM | NCI-H23 > 56 µM | NCI-H460 1.14 µM | NCI-H522 > 100 µM | NCI/ADR-RES 37.2 µM | OVCAR-3 > 100 µM | OVCAR-4 > 100 µM | OVCAR-5 > 100 µM | OVCAR-8 65.9 µM | PC-3 > 51.1 µM | RPMI-8226 31.3 µM | RXF 393 > 100 µM | SF-268 4.94 µM | SF-295 > 91.2 µM | SF-539 4.71 µM | SK-MEL-28 > 100 µM | SK-MEL-2 > 100 µM | SK-MEL-5 77.3 µM | SK-OV-3 > 92.5 µM | SN12C > 64.4 µM | SNB-19 40.8 µM | SNB-75 > 63.7 µM | SR 5.02 µM | SW-620 > 100 µM | T47D > 32.5 µM | TK-10 > 100 µM | U-251 > 100 µM | UACC-257 > 100 µM | UACC-62 > 26.5 µM | UO-31 23.2 µM
active: A498 0.964 µM

CCOP(C)(=O)/C(Cc1ccc(OC)c(OC)c1)=N\O (stereo unspecified)
> 100 µM: HCT-15
inactive: 786-0 > 100 µM | A498 > 100 µM | A549 > 100 µM | ACHN > 100 µM | BT-549 > 100 µM | CAKI-1 > 100 µM | CCRF-CEM > 100 µM | COLO 205 > 100 µM | DU-145 > 100 µM | EKVX > 100 µM | HCC 2998 > 100 µM | HCT-116 > 100 µM | HL-60 > 100 µM | HOP-62 > 100 µM | HOP-92 > 100 µM | HT-29 > 100 µM | Hs-578T > 100 µM | IGROV-1 > 100 µM | K562 > 100 µM | KM12 > 100 µM | LOX IMVI > 100 µM | M14 > 100 µM | MCF7 > 100 µM | MDA-MB-231 > 100 µM | MDA-MB-435 > 100 µM | MDA-N > 100 µM | MOLT-4 > 100 µM | Malme-3M > 100 µM | NCI-H226 > 100 µM | NCI-H23 > 100 µM | NCI-H460 > 100 µM | NCI-H522 > 100 µM | NCI/ADR-RES > 100 µM | OVCAR-3 > 100 µM | OVCAR-4 > 100 µM | OVCAR-5 > 100 µM | OVCAR-8 > 100 µM | PC-3 > 100 µM | RPMI-8226 > 100 µM | RXF 393 > 100 µM | SF-295 > 100 µM | SF-539 > 100 µM | SK-MEL-28 > 100 µM | SK-MEL-2 > 100 µM | SK-MEL-5 > 100 µM | SK-OV-3 > 100 µM | SN12C > 100 µM | SNB-19 > 100 µM | SNB-75 > 100 µM | SR > 100 µM | SW-620 > 100 µM | T47D > 100 µM | TK-10 > 100 µM | U-251 > 100 µM | UACC-62 > 100 µM | UO-31 > 100 µM

CCOC(=O)C1=NNC(C(=O)c2ccccc2)C1c1ccccc1 (stereo unspecified)
2.15 µM: HCT-15
inactive: 786-0 2.11 µM | A498 25.1 µM | A549 19.1 µM | ACHN 1.85 µM | BT-549 2.08 µM | CAKI-1 1.83 µM | CCRF-CEM 1.64 µM | COLO 205 2.05 µM | DU-145 13.2 µM | EKVX 8.95 µM | HCC 2998 1.96 µM | HCT-116 2.52 µM | HOP-62 12.2 µM | HOP-92 2.07 µM | HT-29 2.28 µM | Hs-578T 4.12 µM | IGROV-1 4.6 µM | K562 1.47 µM | KM12 6.87 µM | LOX IMVI 2.32 µM | M14 1.9 µM | MCF7 1.91 µM | MDA-MB-231 3.94 µM | MDA-MB-435 1.91 µM | MDA-N 1.85 µM | MOLT-4 3.54 µM | Malme-3M 2.19 µM | NCI-H226 18.1 µM | NCI-H23 2.42 µM | NCI-H522 1.15 µM | NCI/ADR-RES 4.35 µM | OVCAR-3 3.42 µM | OVCAR-4 7.4 µM | OVCAR-5 6.47 µM | OVCAR-8 5.51 µM | PC-3 10.4 µM | RPMI-8226 3.85 µM | RXF 393 1.7 µM | SF-268 5 µM | SF-295 16.9 µM | SF-539 2.17 µM | SK-MEL-28 1.91 µM | SK-MEL-2 16.2 µM | SK-MEL-5 1.8 µM | SK-OV-3 18.8 µM | SN12C 2.08 µM | SNB-19 14.4 µM | SNB-75 5.7 µM | SR 1.81 µM | SW-620 1.75 µM | T47D 4.24 µM | TK-10 2.25 µM | U-251 3.39 µM | UACC-257 2.61 µM | UACC-62 3.18 µM | UO-31 2.01 µM
active: HL-60 0.644 µM
